This is an account of results in ChEMBL document CHEMBL3734661, “The chemistry and pharmacology of privileged pyrroloquinazolines” (Medchemcomm, 2015).

A short description of data set [1]: Cytotoxic activity against human HL60 cells. The note with it: HL-60. The format is functional, cell-based.
A short description of data set [2]: Cytotoxicity against human HCT8 cells assessed as growth inhibition by MTT assay. Conditions: HCT-8. It counts as functional.
The nature of data set [3]: Cmax in Beagle dog at 5 mg/kg, po after 1.8 hrs. The format is ADME, organism-based, Canis lupus familiaris. Also on record: dose 5 mg/kg, route oral. The note with it: in vivo.
Data set [4] is described as follows: Half life in Beagle dog at 2.5 mg/kg, iv. It counts as ADME, organism-based, Canis lupus familiaris. The note with it: in vivo.
Another data set concerns Candida albicans. As to the kind of experiment: Antifungal activity against Candida albicans after 24 hrs by microtiter method. The format is functional.
A short description of data set [5]: Half life in Beagle dog at 5 mg/kg, po. The format is ADME, organism-based, Canis lupus familiaris. Conditions: in vivo.
The nature of data set [6]: Tmax in Beagle dog at 5 mg/kg, po. The note with it: in vivo. It counts as ADME, organism-based, Canis lupus familiaris.
For data set [7], the target named is T1, Dihydrofolate reductase (Homo sapiens, UniProt P00374).
T1 sequence (P00374 whole entry): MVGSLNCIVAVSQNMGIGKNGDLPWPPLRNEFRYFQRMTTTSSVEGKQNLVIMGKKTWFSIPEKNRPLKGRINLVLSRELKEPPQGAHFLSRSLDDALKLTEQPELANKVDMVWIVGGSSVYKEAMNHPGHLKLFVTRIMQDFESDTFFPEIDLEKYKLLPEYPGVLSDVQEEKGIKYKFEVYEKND
As to the kind of experiment: Competitive inhibition of human recombinant DHFR preincubated for 2 mins followed by substrate addition in presence of dihydrofolate.

The nature of data set [8]: Volume of distribution in Beagle dog at 2.5 mg/kg, iv. The format is ADME, organism-based, Canis lupus familiaris. The note with it: in vivo.
Data set [9] can be described thus: Oral bioavailability in Beagle dog at 5 mg/kg. The format is ADME, organism-based, Canis lupus familiaris. The note with it: in vivo.
The next data set relates to Human alphaherpesvirus 1. The experiment in a line: Antiviral activity against HSV1 after 1.5 hrs by microtiter plate reader analysis. Conditions: Human alphaherpesvirus 1, 1.5 h.
Data set [10] in a line: Therapeutic index, ratio of MTD for Sprague-Dawley rat to MCD for Plasmodium berghei infected in Sprague-Dawley rat. Conditions: read-out: TI.
The subject of data set [11] is Plasmodium falciparum. As to the kind of experiment: Antimalarial activity against Plasmodium falciparum RCS assessed as [3H]hypoxantine incorporation preincubated for 48 hrs followed by [3H]hypoxantine addition measured after 18 hrs by scintillation counting analysis. The format is functional, organism-based.
Data set [12] deals with Plasmodium falciparum. As to the kind of experiment: Antimalarial activity against Plasmodium falciparum W-2 assessed as [3H]hypoxantine incorporation preincubated for 48 hrs followed by [3H]hypoxantine addition measured after 18 hrs by scintillation counting analysis. It counts as functional, organism-based.
The test system of data set [13] is Plasmodium falciparum. The experiment in a line: Antimalarial activity against Plasmodium falciparum TM91C235 assessed as [3H]hypoxantine incorporation preincubated for 48 hrs followed by [3H]hypoxantine addition measured after 18 hrs by scintillation counting analysis. It counts as functional, organism-based.
For data set [14], the system named is Plasmodium falciparum. The experiment in a line: Antimalarial activity against Plasmodium falciparum D6 assessed as [3H]hypoxantine incorporation preincubated for 48 hrs followed by [3H]hypoxantine addition measured after 18 hrs by scintillation counting analysis. The format is functional, organism-based.
Data set [15] has as its target Dihydrofolate reductase (Lactobacillus casei, UniProt P00381). As to the kind of experiment: Inhibition of DHFR in Lactobacillus casei using dihydrofolate as substrate preincubated for 5 mins followed by substrate addition by spectrofluorometric analysis. Further details: species or system Lacticaseibacillus casei.
Another data set concerns L1210. The experiment in a line: Cytotoxicity against mouse L1210 cells assessed as growth inhibition after 48 hrs by MTT assay. It counts as functional, cell-based. The note with it: L1210, 48 h. A general note: Tetrazolium assays rely on reduction of a dye to a coloured formazan, in cell work by metabolically active cells.
Data set [16] is described as follows: Inhibition of DHFR in Crithidia oncopelti using dihydrofolate as substrate preincubated for 5 mins followed by substrate addition by spectrofluorometric analysis.
In data set [17] the target is T2, Dihydrofolate reductase (Rattus norvegicus, UniProt Q920D2).
T2 sequence (Q920D2 whole entry): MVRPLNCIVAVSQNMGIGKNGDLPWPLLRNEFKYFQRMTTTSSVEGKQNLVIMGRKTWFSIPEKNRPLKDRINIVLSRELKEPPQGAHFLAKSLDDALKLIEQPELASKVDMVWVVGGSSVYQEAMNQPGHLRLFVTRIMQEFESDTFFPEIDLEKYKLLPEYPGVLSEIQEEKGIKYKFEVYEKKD
The experiment in a line: Inhibition of rat DHFR extracted from liver using dihydrofolate as substrate preincubated for 5 mins followed by substrate addition by spectrofluorometric analysis.

The target in data set [18] is T3, Dihydrofolate reductase (Mus musculus, UniProt P00375).
T3 sequence (P00375 whole entry): T2 sequence (Q920D2 whole entry) with L27P, Q85R, K99R, V115I, E155G, I170V
The experiment in a line: Inhibition of DHFR in mouse L1210 cells using dihydrofolate as substrate preincubated for 5 mins followed by substrate addition by spectrofluorometric analysis. The format is cell-based.

A further data set concerns Candida. The experiment in a line: Antifungal activity against Candida clinical isolates after 24 hrs by microtiter method. The format is functional.

Residue numbers refer to the chain shown, from its start. ≈ marks a conversion by molar mass, not a printed value.

In data set [1], `CCn1c2ccccc2c2c3c(=O)[nH]c(NCCN(C)C)nc3ccc21` registered an IC50 of 17000 nM.

As to `CCC(CC)n1c(C)cc2c3c(N)nc(N)nc3ccc21`, in data set [2], the GI50 stood at 0.74 nM. Besides, the highest level in data set [3] (Cmax) was 0.17 µg/mL. For the same molecule, the half-life in data set [4] is 2.8 h; in [5], 4 h. In addition, in the data set on Candida albicans, the MIC came out at 0.025 mg/L (≈ 0.0882 µM). Further, in [6], the Tmax was 1.8 h. Besides, the Ki at Dihydrofolate reductase [7] came to 0.0003 nM. In [8], this molecule displayed a Vd of 9.3 L/g. Also, the bioavailability in data set [9] turned out to be 49%.

For `Nc1nc(N)c2c(ccc3[nH]ccc32)n1`, the inhibitory constant (Ki) on Dihydrofolate reductase [7] turned out to be 1 nM.

On to `Cc1cc2c(ccc3nc(N)nc(N)c32)[nH]1`, for which the IC50 with Human alphaherpesvirus 1 is 15000 nM.

Turning to `CC(=O)N(C(C)=O)c1nc(N(C(C)=O)C(C)=O)c2c(ccc3c2ccn3Cc2ccccc2C(F)(F)F)n1`, the selectivity ratio in data set [10] amounted to 80. The IC50 in the data set on Plasmodium falciparum [11] amounted to 0.046 nM; with Plasmodium falciparum [12], 0.14 nM; in the data set with Plasmodium falciparum [13] it was 0.16 nM; in the data set with Plasmodium falciparum [14] it was 0.046 nM.

`N#Cc1ccc(Cn2ccc3c4c(N)nc(N)nc4ccc32)cc1`: the half-inhibitory concentration (IC50) on Dihydrofolate reductase [15] turned out to be 6.4 nM; in the data set with L1210, 40 nM; in data set [16], 0.7 nM; at Dihydrofolate reductase [17], 2.1 nM; at Dihydrofolate reductase [18], 4 nM.

As for `Nc1nc(N)c2c(ccc3c2ccn3CC2CC2)n1`, the minimal inhibitory concentration (MIC) with Candida and in the data set with Candida albicans was 1.39 mg/L (≈ 5.49 µM) throughout.

On to `Nc1nc(N)c2c(ccc3c2ccn3Cc2ccccc2)n1`, for which the minimum inhibitory concentration (MIC) in the data set with Candida and with Candida albicans was 0.64 mg/L (≈ 2.21 µM) throughout.

In general, IC50 refers to the concentration that inhibits the measured activity by half. In general, GI50 refers to the concentration that inhibits growth by half. What is called Cmax is the maximum level reached in the sampled fluid or tissue. Usually half-life stands for the time in which the quantity being followed falls by half. Low values mean fast loss, high ones slow loss. One may read the MIC as the lowest concentration found to suppress growth. Low values mean greater potency, high ones weaker potency. As usually defined, the Tmax is the time at which the peak concentration occurs. As usually defined, the Ki is a measure of affinity in units of concentration, obtained from inhibition or displacement. Usually bioavailability stands for the share of a dose that reaches the circulation, judged against a reference dose that is usually intravenous. Read a high bioavailability as good availability.
